A short description of assay [1]: Inhibition of NDM-1 (unknown origin) expressed in Escherichia coli BL21 using meropenem as substrate compound preincubated for 15 min by spectrophotometry.
For assay [2], the system named is Klebsiella pneumoniae. Description: Antibacterial activity against Klebsiella pneumoniae ATCC BAA-2146 at 10 uM after 24 hrs by spectrophotometry. It is filed as functional, organism-based.
The test system of assay [3] is HCT-8. Description: Cytotoxicity assay against human HCT8 cells at 10 uM after 96 hrs by MTT assay. Format: functional, cell-based. Background: Formazan colour is commonly taken as a measure of viable cells.
The test system of assay [4] is KETR3. The assay can be described thus: Cytotoxicity assay against human Ketr3 cells at 10 uM after 96 hrs by MTT assay. Format: functional, cell-based.
The test system of assay [5] is Bel-7402. Description: Cytotoxicity assay against human Bel7402 cells at 10 uM after 96 hrs by MTT assay. Format: functional, cell-based.
In assay [6] the test system is MCF7. Description: Cytotoxicity assay against human MCF7 cells at 10 uM after 96 hrs by MTT assay. Format: functional, cell-based.
Assay [7] deals with BGC-823. The assay can be described thus: Cytotoxicity assay against human BGC823 cells at 10 uM after 96 hrs by MTT assay. It is filed as functional, cell-based.
The test system of assay [8] is A549. Description: Cytotoxicity assay against human A549 cells at 10 uM after 96 hrs by MTT assay. It is filed as functional, cell-based.
Assay [9] has as its system Coxsackievirus B3. The assay can be described thus: Antiviral activity against Coxsackievirus B3 at 10 uM. Format: functional, organism-based.
Assay [10] concerns Influenza A virus. Description: Antiviral activity against influenza A virus A/FM/1/47 (H1N1) infected in MDCK cells at 10 uM by Reed and Muench analysis. It is filed as functional, organism-based.
Assay [11] has as its system Influenza A virus. Description: Antiviral activity against influenza A virus A/Hanfang/359/95 (H3N2) infected in MDCK cells at 10 uM by Reed and Muench analysis. Format: functional, organism-based.
Assay [12] deals with Klebsiella pneumoniae. The assay can be described thus: Antibacterial activity against Klebsiella pneumoniae ATCC BAA-2146 assessed as reduction in meropenem MIC at 128 ug/mL after 24 hrs by spectrophotometry. Format: functional, organism-based.
Assay [13] concerns Klebsiella pneumoniae. Description: Antibacterial activity against Klebsiella pneumoniae ATCC BAA-2146 at 256 ug/mL after 24 hrs by spectrophotometry. Format: functional, organism-based.
The test system of assay [14] is Klebsiella pneumoniae. Description: Antibacterial activity against Klebsiella pneumoniae ATCC BAA-2146 after 24 hrs by spectrophotometry. It is filed as functional. The settings on record: ATCC BAA-2146, 24 h.

In brackets after ≈: the same amount, converted by molar mass. Activity calls are given as the source filed them. No cut-off for these calls is given here. A value given as a limit tells only on which side of the number the result lay.

On to `O=C(O)CN(CCN(CC(=O)O)CC(=O)O)CC(=O)O` [EDETIC ACID], for which the IC50 (usually the concentration that inhibits the measured activity by half) in assay [1] was under 0.1 µM.
Regarding `C[C@H](CS)C(=O)N1CCC[C@@H]1C(=O)O` [D-CAPTOPRIL], the IC50 in [1] came out at 8 µM.
As for `C[C@H]1C[C@@H](O)[C@@H]2O[C@@H]2[C@H]1O`, the outcome in assay [2], in assay [3], in [4], in assay [5], in [6] and in [7] was inactive. Further, the result in assay [8], in assay [9], in [10] and in assay [11] was inactive.
Regarding `CC(=O)C[C@H](O)c1coc2cc(O)cc(C(=O)O)c2c1=O`, the outcome in assay [12], in [13], in assay [2], in assay [3], in assay [4] and in assay [5] was inactive. In addition, the result in assay [6], in [7], in assay [8], in assay [9], in assay [10] and in assay [11] was inactive. Further, 94.9 µM corresponded to half-maximal inhibition in assay [1] (IC50).
With `C[C@@H](O)[C@H]1C(=O)N2C(C(=O)O)=C(S[C@@H]3CN[C@H](C(=O)N(C)C)C3)[C@H](C)[C@H]12` [MEROPENEM], the MIC (as a rule, the least concentration at which growth counts as inhibited) in assay [14] came out at 128 mg/L (≈ 334 µM).
For `COc1c(O)cc2oc3cc(C)ncc3c(=O)c2c1C(=O)O`, the outcome in [12], in assay [13], in assay [2], in assay [3], in assay [4] and in assay [5] was inactive. For the same compound, the outcome in [6], in assay [7], in assay [8], in assay [9], in assay [10] and in assay [11] was inactive. In [1], this compound registered an IC50 of 87.9 µM.
With `O=C(O)C[C@H](NC(=O)c1cc(=O)[nH]c2ccccc12)C(=O)O`, the result in assay [2], in [3], in assay [4], in assay [5], in assay [6] and in assay [7] was inactive. Moreover, the result in assay [8], in assay [9], in assay [10] and in [11] was inactive.
Turning to `C[C@H](CS)C(=O)N1CCC[C@H]1C(=O)O` [CAPTOPRIL], in [1], inhibition was half-maximal at 108 µM (IC50).

These data come from ChEMBL document CHEMBL2417415, “Polyketides with New Delhi metallo-β-lactamase 1 inhibitory activity from Penicillium sp” (J Nat Prod, 2013).
